Measurements as given in article PMC8131363 (Scientific Reports, 2021).
Where two headings read alike, the source gives them in different places.

Legend:
cCaSR [1] = target: T1, cCaSR (Felis catus, UniProt C7FF08); experiment: cCaSR PAM luminescence assay, double injection with 0.5 mM CaCl2, HEK293/T-REx/natClytin-cCaSR; conditions: for EC50: read-out: EC50 PAM, positive allosteric modulator, presence of Ca2+
T1 sequence (C7FF08 1-1081): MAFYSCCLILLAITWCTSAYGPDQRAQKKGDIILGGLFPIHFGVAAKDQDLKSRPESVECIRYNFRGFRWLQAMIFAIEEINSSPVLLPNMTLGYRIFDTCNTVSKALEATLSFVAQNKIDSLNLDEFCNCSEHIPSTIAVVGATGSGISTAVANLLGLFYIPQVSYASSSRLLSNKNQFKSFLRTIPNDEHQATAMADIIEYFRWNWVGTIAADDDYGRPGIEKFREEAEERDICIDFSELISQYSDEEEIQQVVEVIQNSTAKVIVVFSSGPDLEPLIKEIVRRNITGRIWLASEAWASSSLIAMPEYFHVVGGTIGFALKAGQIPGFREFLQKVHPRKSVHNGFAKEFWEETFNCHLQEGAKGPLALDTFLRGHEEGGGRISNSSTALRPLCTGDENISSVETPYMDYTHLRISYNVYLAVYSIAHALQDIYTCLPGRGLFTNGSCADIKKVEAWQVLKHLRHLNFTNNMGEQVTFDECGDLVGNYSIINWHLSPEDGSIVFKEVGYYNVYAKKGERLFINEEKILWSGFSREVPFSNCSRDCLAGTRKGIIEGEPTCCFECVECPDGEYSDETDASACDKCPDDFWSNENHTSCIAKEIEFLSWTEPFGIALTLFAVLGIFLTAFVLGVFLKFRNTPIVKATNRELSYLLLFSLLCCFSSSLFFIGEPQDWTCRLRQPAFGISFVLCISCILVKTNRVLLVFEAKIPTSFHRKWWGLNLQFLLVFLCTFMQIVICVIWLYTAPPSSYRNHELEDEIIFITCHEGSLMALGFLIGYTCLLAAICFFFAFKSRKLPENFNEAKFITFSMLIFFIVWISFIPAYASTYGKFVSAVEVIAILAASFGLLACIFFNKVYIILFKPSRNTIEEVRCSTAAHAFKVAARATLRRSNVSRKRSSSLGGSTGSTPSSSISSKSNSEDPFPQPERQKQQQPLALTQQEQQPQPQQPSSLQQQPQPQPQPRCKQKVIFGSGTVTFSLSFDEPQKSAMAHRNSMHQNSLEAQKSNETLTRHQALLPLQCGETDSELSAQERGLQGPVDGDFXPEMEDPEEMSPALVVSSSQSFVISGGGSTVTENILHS

cCaSR [2] = target: T1, cCaSR
Experimental: The cCaSR expression constructs were stably-transfected in the mammalian cell line, HEK293/ T-REx/ natClytin. Transfections were performed by electroporation, following standard methodologies. Stably-transfected target and mock pools were obtained after 2–3 weeks of antibiotic selection, and clones were selected for testing. In order to evaluate the activity of each clone, 10 mM Calcium was injected onto the cells and the resulting luminescence was measured.
All compounds screened on the receptor were analysed in parallel with Calcium, on the HEK293/ T-REx/ natClytin-cCaSR or hCaSR stable or transient cell lines. Prior to the measurements, the cells were incubated with 10 µM of photoprotein substrate, Coelenterazine, prepared in Calcium-free Tyrode’s buffer at 37 °C for 3–4 h. All the data was captured using a FLIPR Tetra (Molecular Devices). A single or double injection protocol was used to capture the data for potential agonists and PAMs, respectively. The compounds tested were all prepared at desired concentration in Calcium-Free Tyrode’s buffer supplemented with 0.5% DMSO. For the activity determination of potential agonists, the single injection protocol was used, with CaCl2 as the positive control for each run. Each compound was injected into specific wells and the luminescence signal was measured for 1 min. for each compound. For potential PAMs, the double injection protocol was used. The first injection was identical to the one described above for potential agonists. A 20 min. resting period followed the first injection and a second injection of 0.5 mM CaCl2 in Calcium-free Tyrode’s buffer was injected to all wells, and the resulting luminescence signal was again measured for 1 min for each compound.
Dose–response curves were established by plotting signal amplitudes versus agonist concentration. For each compound, the % of maximum response was determined using a standard formula as follows:
The half maximal effective concentrations (EC50) were identified by nonlinear regression using a variable slope model with the equation Y = Bottom + (X^Hillslope)*(Top–Bottom)/ (X^HillSlope + EC50^HillSlope), where Y is the agonist concentration, Top and Bottom are the plateaus in the same units as Y and HillSlope is the Slope factor or Hill slope. […] In these cases the EC50 was noted as being higher than the maximum concentration used in the assay.

[3] = Supplementary Table I, PAM assay, dash = no activity
[4] = Supplementary Table I, agonist assay, dash = no activity
[5] = agonist assay, stable inducible cCaSR line, > 0.01 M = maximal response not reached
[6] = read-out: EC50 Ago, Supplementary Table I, agonist assay, > 0.01 M = maximal response not reached
[7] = read-out: cCaSR activity, agonist assay, stable inducible cCaSR line, at least three wells

Row | Compound | EC50 PAM (M) (cCaSR [1]; [3]) | EC50 Ago (M) (cCaSR [2]; [4]) | also measured
1 | N[C@H](CCC(=O)O)C(=O)O [D-Glutamic acid] | - | - | 
2 | NCCCC[C@@H](N)C(=O)O [D-Lysine] | - | - | 
3 | O=P(O)(O)C(Cl)(Cl)P(=O)(O)O [Dichloromethylenediphosphonic acid] | - | - | 
4 | COc1cc(C(O)(c2nc3ccccc3s2)C(F)(F)F)c(OC)cc1N (stereo not shown) [Enamine Screening - Z317045236] |  | - | EC50 (cCaSR [1]; Supplementary Table I): 2.42 µM
5 | CC(=O)N1C=Cc2ccccc2C1CC(=O)NC(C)c1cccc(Br)c1 (stereo not shown) [Enamine Screening - Z336933272] |  | - | EC50 (cCaSR [1]; Supplementary Table I): 12.1 µM
6 | COC(=O)C(NC1CCc2c(F)cccc21)c1cccc(C#N)c1 (stereo not shown) [Enamine Screening - Z1362199910] |  | - | EC50 (cCaSR [1]; Supplementary Table I): 58.9 µM
7 | CC(NC1CCc2c(F)cc(Br)cc21)c1ccncc1 (stereo not shown) [Enamine Screening - Z1436888168] |  | - | EC50 (cCaSR [1]; Supplementary Table I): 45.7 µM
8 | CC(NCC1Cc2ccccc2O1)c1ccc2ccccc2n1 (stereo not shown) [Enamine Screening - Z1437387381] |  | - | EC50 (cCaSR [1]; Supplementary Table I): 9.01 µM
9 | CC(NCC1CCCN(C)C1c1cccs1)c1cc(Cl)c(N)c(Cl)c1 (stereo not shown) [Enamine Screening - Z1532507755] |  | - | EC50 (cCaSR [1]; Supplementary Table I): 8.68 µM
10 | COc1ccc(C2C(CNC(C)c3ccncc3)CCN2C)cc1 (stereo not shown) [Enamine Screening - Z1563602968] | - | - | 
11 | OCC(CNC1CCCOc2cc(Cl)ccc21)Cc1ccccn1 (stereo not shown) [Enamine Screening - Z1589915397] |  | - | EC50 (cCaSR [1]; Supplementary Table I): 122 µM
12 | Cc1ccc(C(C)NC(C)c2cc3ccccc3[nH]2)cc1C (stereo not shown) [Enamine Screening - Z1592615858] |  | - | EC50 (cCaSR [1]; Supplementary Table I): 1.92 µM
13 | c1ccc(C2CCN(C3CCCc4ccccc43)C2)cc1 (stereo not shown) [Enamine Screening - Z1627256025] |  | - | EC50 (cCaSR [1]; Supplementary Table I): 797 µM
14 | COc1ccc(CCC(C)NC2CCOc3ccccc32)cc1O (stereo not shown) [Enamine Screening - Z1857407854] |  | - | EC50 (cCaSR [1]; Supplementary Table I): 5.5 µM
15 | [Gd+3] [Gd^3+, Gadolinium ion Gd^3+] | - |  | EC50 (cCaSR [2]; [5]): 295 µM; EC50 (cCaSR [2]; [6]): 295 µM; EC50 (cCaSR [2]; [7]): < 1000 µM
16 | NCC(=O)O [Glycine] | - | - | 
17 | C1N2CN3CN1CN(C2)C3 [Hexamethylenetetramine] | - | - | 
18 | O=C(O)[C@@H]1C[C@@H](O)CN1 [Hydroxyproline] | - | - | 
19 | CN[C@H]1C[C@@H](N)[C@H](O)[C@@H](O[C@@H]2O[C@H](CO)[C@H](O)[C@@H]3OC4(O[C@H]23)O[C@H]([C@@H](N)CO)[C@H](O)[C@H](O)[C@H]4O)[C@@H]1O (stereo partly shown) [Hygromycin B, reference compound] | - | - | 
20 | NC[C@H]1O[C@H](O[C@H]2[C@H](O)[C@@H](O[C@H]3O[C@H](CO)[C@@H](O)[C@H](N)[C@H]3O)[C@H](N)C[C@@H]2N)[C@H](O)[C@@H](O)[C@@H]1O [Kanamycin solution, Kanamycin, reference compound] | - | - | 
21 | N[C@@H](CCP(=O)(O)O)C(=O)O [L-2-Amino-4-phosphonobutyric acid] | - | - | 
22 | C[C@H](N)C(=O)O [L-Alanine] | - | - | 
23 | COC(=O)[C@@H](N)CCCN=C(N)N [L-Arginine methyl ester] | - | - | 
24 | N=C(N)NCCC[C@H](N)C(=O)O [L-Arginine] |  |  | EC50 PAM (M) (cCaSR [1]): -; EC50 Ago (M) (cCaSR [2]): -
25 | NC(=O)C[C@H](N)C(=O)O [L-Asparagine] | - | - | 
26 | N[C@@H](CS)C(=O)O [L-Cysteine] | - | - | 
27 | COC(=O)CC[C@H](N)C(=O)O [L-Glutamic Acid 5-Methyl Ester] | - | - | 
28 | NC(=O)CC[C@H](N)C(=O)O [L-Glutamine] | - | - | 

Row | Compound | EC50 PAM (M) (cCaSR [1]; [3]) | EC50 Ago (M) (cCaSR [2]; [4]) | also measured
29 | N[C@@H](Cc1c[nH]cn1)C(=O)O [L-Histidine] | - | - | 
30 | N[C@@H](CCO)C(=O)O [L-Homoserine] | - | - | 
31 | CC[C@H](C)[C@H](N)C(=O)O [L-Isoleucine] | - | - | 
32 | CC(C)C[C@H](N)C(=O)O [L-Leucine] | - | - | 
33 | CSCC[C@H](N)C(=O)O [L-Methionine] |  |  | EC50 PAM (M) (cCaSR [1]): -; EC50 Ago (M) (cCaSR [2]): -
34 | NCCC[C@H](N)C(=O)O [L-Ornithine] | - | - | 
35 | O=C(O)[C@@H]1CCCN1 [L-Proline] | - | - | 
36 | N[C@@H](C[Se][Se]C[C@H](N)C(=O)O)C(=O)O.O [L-Selenocystine monohydrate] | - | - | 
37 | N[C@@H](CO)C(=O)O [L-Serine] | - | - | 
38 | C[C@@H](O)[C@H](N)C(=O)O [L-Threonine] | - | - | 
39 | N[C@@H](Cc1ccc(O)cc1)C(=O)O [L-Tyrosine] | - | - | 
40 | CC(C)[C@H](N)C(=O)O [L-Valine] | - | - | 
41 | O=P(O)(O)CP(=O)(O)O [Methylenediphosphonic acid] | - |  | EC50 (cCaSR [2]; [5]): 1290 µM; EC50 (cCaSR [2]; [6]): 1290 µM
42 | NCCNCCCNCCN [N,N'-Bis(2-aminoethyl)-1,3-propanediamine] |  |  | EC50 PAM (M) (cCaSR [1]): -; EC50 Ago (M) (cCaSR [2]): -
43 | CN(C)C(N)=NCCC[C@H](N)C(=O)O.Cl.Cl [NG,NG-Dimethylarginine dihydrochloride] | - | - | 
44 | COC(=O)[C@@H](N)CCCNC(N)=N[N+](=O)[O-] [NG-Nitro-L-Arginine Methyl Ester] | - | - | 
45 | CNC(=N)NCCC[C@H](N)C(=O)O [NG-methyl L Arginine] | - | - | 
46 | CC(C)(Cc1ccc2ccccc2c1)NC[C@@H](O)COc1cccc(Cl)c1C#N [NPS 2143, reference compound] | - | - | 
47 | COC(=O)[C@@H](N)CCCNC(=N)N[N+](=O)[O-].Cl [Nω-Nitro-L-arginine methyl ester hydrochloride] | - | - | 
48 | O=S(=O)([O-])C(F)(F)F.O=S(=O)([O-])C(F)(F)F.O=S(=O)([O-])C(F)(F)F.[Pr+3] [Pr^3+, Praseodymium(III) trifluoromethanesulfonate] | - |  | EC50 (cCaSR [2]; [5]): 398 µM; EC50 (cCaSR [2]; [6]): 398 µM; EC50 (cCaSR [2]; [7]): < 1000 µM
49 | CC1(C)N[C@H](C(=O)O)Cc2c1[nH]c1ccccc21 [S-1,1-dimethyl-2,3,4,9-tetrahydro-1H-pyrido[3,4-b]indole-3-carboxylic acid] | - | - | 
50 | NC[C@H](N)C(=O)O [S-2,3-diaminopropanoic acid] | - | - | 
51 | O=C(O)[C@@H]1CNCCN1 [S-piperazine-2-carboxylic acid] | - | - | 
52 | O.O.O.O.O.O.O.O.O.O.O=P([O-])([O-])OP(=O)([O-])[O-].[Na+].[Na+].[Na+].[Na+] [Sodium pyrophosphate tetrabasic decahydrate] | - | - | 
53 | NCCCNCCCCNCCCN [Spermine] | - |  | agonist activity on cCaSR (in words) (cCaSR [2]): agonists
54 | [Sr+2] [Sr^2+] | - |  | EC50 (cCaSR [2]; [7]): > 10000 µM
55 | OC[C@H]1O[C@H](O[C@]2(CCl)O[C@H](CCl)[C@@H](O)[C@@H]2O)[C@H](O)[C@@H](O)[C@H]1Cl [Sucralose] | - | - | 
